Structures can show the parent of a compound that is named as a salt.
Assays:
glucose oxidase = glucose oxidase (Aspergillus niger, UniProt P13006); experiment: Current response in a buffer with electron mediator (inventors' experiments); assay type: biochemical; details: compared with conventional electron mediators (ferrocene derivatives, inorganic ions, metal complexes)
Description: (§1) Of these oxidation-reduction enzymes, glucose oxidase (GOD) is used in enzyme electrodes for the measurement of blood glucose level and horseradish peroxidase (HRPO) is used as a label enzyme in specific binding assays such as DNA hybridization, immunoassay and the like. […] However, these electron mediators were not able to show stable and reproducible response in the presence of blood, urine and the like because of the interfering substances contained therein.

horseradish peroxidase = target: T1, horseradish peroxidase (Armoracia rusticana, UniProt P00433); experiment: as above; assay type: biochemical; details: compared with conventional electron mediators (ferrocene derivatives, inorganic ions, metal complexes)
T1 sequence (P00433 31-338 limits assumed): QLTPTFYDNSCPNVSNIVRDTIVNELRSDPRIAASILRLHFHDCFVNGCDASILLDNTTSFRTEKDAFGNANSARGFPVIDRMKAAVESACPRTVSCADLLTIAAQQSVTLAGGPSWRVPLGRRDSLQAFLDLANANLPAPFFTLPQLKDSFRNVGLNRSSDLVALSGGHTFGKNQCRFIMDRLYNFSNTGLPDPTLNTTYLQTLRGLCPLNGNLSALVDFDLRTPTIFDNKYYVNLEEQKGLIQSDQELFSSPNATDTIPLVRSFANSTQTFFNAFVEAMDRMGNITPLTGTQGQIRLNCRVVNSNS
Description: as §1

Glucose oxidase (GOD) = target: T2, Glucose oxidase (GOD) (Aspergillus niger, UniProt P13006); experiment: Electron transfer activity 1: GOD-glucose-compound, current at +300 mV; assay type: biochemical; details: +300 mV vs Ag/AgCl, pH 6.0
T2 construct: purchased Boehringer-Mannheim
Experimental: Measurement of electron transfer activities of TEPD, TCPD, THEPD, TDHPD, HTEPD, N,N'-BHPD, N,N-BHDPD, N,N'-BHDPD, and p-phenylenediamine derivatives having substituted amino group by reacting p-phenylenediamine with propyleneoxide--1
Glucose oxidase (GOD, manufactured by Boehringer-Mannheim) was dissolved in 0.1M phosphate buffer (pH 6.0) containing 0.1M NaCl to prepare 0M and 4.0×10^-4 M GOD solutions. Also, glucose (manufactured by Junsei Kagaku) was dissolved in the same buffer to prepare a 1.5M solution. In the same manner, each of the TEPD, TCPD, THEPD, TDHPD, HTEPD, N,N-BHDPD, N,N'-BHPD, N,N'-BHDPD, and p-phenylenediamine derivatives having substituted amino group by reacting p-phenylenediamine with propyleneoxide obtained in Synthesis Examples 1 to 9 was dissolved in the same buffer to prepare a 5.0×10^-3 M solution.
Each of these solutions was mixed in 0.1M phosphate buffer (pH 6.0) containing 0.1M NaCl in the following mixing ratio just before the measurement to prepare solutions of the following compositions A and B, and current was measured continuously in the presence (composition A) or absence (composition B) of GOD.
Using the same apparatus of Test Example 2, electric current was measured in the presence (composition A) or absence (composition B) of GOD for 10 minutes under application of potential of +300 mV (vs Ag/AgCl) to the working electrode.

[1] = target: T3, Horseradish peroxidase (HRPO) (Armoracia rusticana, UniProt P00433); experiment: Electron transfer activity 2: HRPO-hydrogen peroxide-compound, current at -80 mV or -150 mV; assay type: biochemical; details: -80 mV or -150 mV vs Ag/AgCl, pH 6.0
T3 construct: purchased TOYOBO
T3 sequence (P00433 31-338 limits assumed): T1 sequence (P00433 31-338 limits assumed)
Experimental: Measurement of electron transfer activities of TCPD, THEPD, TDHPD, HTEPD, N,N-BHDPD, N,N'-BHPD, N,N'-BHDPD, and p-phenylenediamine derivatives having substituted amino group by reacting p-phenylenediamine with propyleneoxide--2
Horseradish peroxidase (HRPO, manufactured by TOYOBO) was dissolved in 0.1M phosphate buffer (pH 6.0) containing 0.1M NaCl to prepare 0M and 5.0×10^-7 M HRPO solutions. Also, hydrogen peroxide (manufactured by Wako Pure Chemical Industries) was dissolved in the same buffer to prepare a 1.0×10^-1 M solution. In the same manner, each of the TCPD, THEPD, TDHPD, HTEPD, N,N-BHDPD, N,N'-BHPD, N,N'-BHDPD, and p-phenylenediamine derivatives having substituted amino group by reacting p-phenylenediamine with propyleneoxide obtained in Synthesis Examples 1 to 9 was dissolved in the same buffer to prepare a 5.0×10^-3 M solution.
Each of these solutions was mixed in 0.1M phosphate buffer (pH 6.0) containing 0.1M NaCl in the following mixing ratio just before the measurement to prepare solutions of the following compositions A and B, and electric current was measured continuously in the presence (composition A) or absence (composition B) of HRPO.
Using the same apparatus of Test Example 2, electric current was measured in the presence (composition A) or absence (composition B) of HRPO for 5 or 10 minutes after application of potential of -80 mV (vs Ag/AgCl, the same shall apply hereinafter) in the case of TEPD, THEPD, and TDHPD, or -150 mV in the case of TCPD, HTEPD, N,N-BHDPD, N,N'-BHPD, N,N'-BHDPD, and p-phenylenediamine derivatives having substituted amino group by reacting p-phenylenediamine with propyleneoxide.

[2] = Current response of electron mediators in buffer solution and in the presence of blood, urine; details: for current response: in a buffer solution; for response in the presence of blood, urine and the like: interfering substances in blood
Description: as §1

[3] = Dry chemistry type chips: filter paper impregnated with mediator solution and dried on an electrode; details: mediator dried on cellulose or glass filter paper, dissolved by liquid sample
Description: In addition, the present inventors have attempted to prepare a dry chemistry type chips by impregnating a piece of cellulose filter paper or glass filter paper with a solution of HQ, PPD, TMPD or TEPD and drying the resulting piece on an electrode (by freeze-drying, vacuum drying, air-drying or the like) or arranging it on an electrode after drying so that the impregnated electron mediator can dissolve in a liquid sample at the time of measurement.

[4] = Measurement of vapor pressures (gas flow method); assay type: physicochemical; details: for vapor pressure lower than that of TEPD / vapor pressure: at 25° C.; for vapor pressure: gas flow method; for property in drying (freeze-drying, vacuum drying, air-drying) and stability of dried states: compared with PPD, TMPD and TEPD, concluded from vapor pressures
Experimental: Measurement of vapor pressures of p-phenylenediamine(PPD), N,N,N',N'-tetramethyl-p-phenylenediamine (TMPD), TEPD, TCPD, THEPD and TDHPD
The PPD(manufactured by Wakoh Junyaku K.K), TMPD (manufactured by Tokyo Kasei K.K), further, TEPD, TCPD, THEPD and TDHPO obtained in the course of the procedures of Synthesis Examples 1 to 4 were checked for their vapor pressures.
Vapor densities (amount of evaporation/volume) of the solid samples (PPD, TMPD, TEPD, TCPD, THEPD and TDHPD) were measured by contacting each sample heated to a predetermined temperature with a stream of carrier gas (nitrogen) and saturating the sample with vapor, and vapor pressures of TEPD and THEPD were calculated from the data on an assumption that the vapor follows the law of ideal gas (gas flow method). The vapor density was calculated by measuring evaporation rate (loss rate) of each sample using an electric balance, and the carrier gas flow rate using a flow meter.
The vapor pressure was calculated from the vapor density based on the following formula.
In the above formula, P represents vapor pressure (mmHg), k represents evaporation rate (mg/min), v represents carrier gas flow rate (ml/min), k/v represents vapor density (mg/ml), M represents molecular weight of each sample, π represents pressure of the system (mmHg) and V represents molar volume of carrier gas (l/mol).

T2 sequence (P13006 17-605): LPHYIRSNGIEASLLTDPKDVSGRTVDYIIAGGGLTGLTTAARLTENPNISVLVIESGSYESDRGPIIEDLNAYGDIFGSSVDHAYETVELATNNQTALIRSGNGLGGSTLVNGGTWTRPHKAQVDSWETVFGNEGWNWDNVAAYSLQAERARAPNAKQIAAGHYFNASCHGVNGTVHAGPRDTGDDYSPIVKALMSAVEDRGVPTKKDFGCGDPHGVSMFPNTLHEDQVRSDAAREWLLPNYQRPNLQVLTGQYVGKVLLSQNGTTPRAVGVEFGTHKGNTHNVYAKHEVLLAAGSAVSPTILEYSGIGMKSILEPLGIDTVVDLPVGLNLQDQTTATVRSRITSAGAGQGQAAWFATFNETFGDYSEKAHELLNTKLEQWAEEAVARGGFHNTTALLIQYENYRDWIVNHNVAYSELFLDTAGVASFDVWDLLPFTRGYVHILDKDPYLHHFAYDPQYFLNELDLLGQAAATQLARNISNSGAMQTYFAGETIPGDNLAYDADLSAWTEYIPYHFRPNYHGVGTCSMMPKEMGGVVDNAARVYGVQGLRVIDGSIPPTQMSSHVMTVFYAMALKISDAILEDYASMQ
glucose oxidase, sequence (P13006 17-605): as above

| Compound | function as electron mediator between GOD and the electrode (Glucose oxidase (GOD)) | function as electron mediator between HRPO and the electrode [1] | current response and characteristics of dry chemistry type chips [3] | also measured |
| --- | --- | --- | --- | --- |
| hydroquinone (HQ)/benzoquinone (BQ) | – | – | – | current response (glucose oxidase): superior current response; current response (horseradish peroxidase): superior current response |
| OCCNc1ccc(NCCO)cc1 [N,N'-BHPD, N,N'-bis-(2'-hydroxyethyl)-p-phenylenediamine] | function as a reversible electron mediator between GOD and the electrode | function as a reversible electron mediator between HRPO and the electrode | – | – |
| CCN(CCO)c1ccc(N(CC)CCO)cc1.Cl.Cl [N,N'-BHDPD, N,N'-bis-(2'-hydroxyethyl)-N,N'-diethyl-p-phenylenediamine dihydrochloride] | function as a reversible electron mediator between GOD and the electrode | function as a reversible electron mediator between HRPO and the electrode | – | – |
| Nc1ccc(N)cc1 [PPD, p-phenylenediamine] | – | – | low current response and extremely poor characteristics | current response [2]: excellent current response; response in the presence of blood, urine and the like [2]: interference |
| Oc1ccc(O)cc1 [HQ, hydroquinone] | – | – | low current response and extremely poor characteristics | – |
| O=C(O)CN(CC(=O)O)c1ccc(N(CC(=O)O)CC(=O)O)cc1 [TCPD, N,N,N',N'-tetrakiscarboxymethyl-p-phenylenediamine] | function as a reversible electron mediator between GOD and the electrode | function as a reversible electron mediator between HRPO and the electrode | – | vapor pressure lower than that of TEPD [4]: about 50,000 times; vapor pressure [4]: 8.7×10^-9 mmHg; property in drying (freeze-drying, vacuum drying, air-drying) and stability of dried states [4]: superior to those of PPD, TMPD and TEPD |
| CCN(CC)c1ccc(N(CCO)CCO)cc1.Cl.Cl [N,N-BHDPD, N,N-bis-(2'-hydroxyethyl)-N',N'-diethyl-p-phenylenediamine dihydrochloride] | function as a reversible electron mediator between GOD and the electrode | function as a reversible electron mediator between HRPO and the electrode | – | – |
| CN(C)c1ccc(N(C)C)cc1 [TMPD, N,N,N',N'-tetramethyl-p-phenylenediamine] | – | – | low current response and extremely poor characteristics | current response [2]: excellent current response; response in the presence of blood, urine and the like [2]: interference |
| CCN(CC)c1ccc(N(CC)CCO)cc1 [HTEPD, N-2'-hydroxyethyl-,N,N',N'-triethyl-p-phenylenediamine dihydrochloride] | function as a reversible electron mediator between GOD and the electrode | function as a reversible electron mediator between HRPO and the electrode | – | – |
| Cl.Cl.OCC(O)CN(CC(O)CO)c1ccc(N(CC(O)CO)CC(O)CO)cc1 (stereo not drawn) [TDHPD, N,N,N',N'-tetrakis-(2',3'-dihydroxypropyl)-p-phenylenediamine dihydrochloride] | function as a reversible electron mediator between GOD and the electrode | function as a reversible electron mediator between HRPO and the electrode | – | vapor pressure lower than that of TEPD [4]: about 420,000 times; vapor pressure [4]: 1.0×10^-9 mmHg; property in drying (freeze-drying, vacuum drying, air-drying) and stability of dried states [4]: superior to those of PPD, TMPD and TEPD |

Source: patent US5609749A, “Electrochemical assay method with novel p-phenylenediamine compound” (Mochida Pharmaceutical Co., Ltd., priority 1993, dated 1997)
